Data as given in article PMC5581131, “The novel sphingosine-1-phosphate receptors antagonist AD2900 affects lymphocyte activation and inhibits T-cell entry into the lymph nodes” (Oncotarget, 2017).

Experiments:
S1P3 = biological target: T1, S1P3 (Homo sapiens, UniProt Q99500); assay: S1P3 agonist test, S1P3 NFAT-bla CHO cells; format: cell-based; conditions: S1P3 NFAT-BLA CHO cell line
T1 construct: expressed in transfected cells; host or cells: S1P3 NFAT-bla CHO cells
Procedure: (§1) Since AD2900 is a sphingolipid analogue with properties that resemble those of S1P, we intended to examine its ability to interact with the S1P receptors. To delineate whether AD2900 can function as an agonistic or antagonistic compound to any of the S1P receptors, we used a high-throughput screening cell-based assay, employing cell lines stably transfected with human S1P receptors 1, 2, 3, 4, or 5 [37]. In this experiment, a compound with an IC50 or EC50 value ≤10 μM for a certain S1P receptor is considered active as an antagonist or an agonist, respectively. The results illustrate that AD2900 acts as an antagonist to all S1P receptors (Table 1, Supplementary Figure 3). […] No agonist activation was evident.
(§2) The S1P1 agonist test and S1P2, S1P3, S1P4, and S1P5 agonist and antagonist tests were conducted as previously described using S1P1 CRE-bla CHO cells, S1P2 CRE-bla CHO cells, S1P3 NFAT-bla CHO cells, Tango™ S1P4 (EDG6)-bla U-2 OS cells, and Tango™ S1P5 ([…])-bla U-2 OS cells. The S1P1 antagonist assay was carried out according to the manufacturer’s instructions using a Tango™ S1P1 (EDG1)-bla U-2 OS Cell-Based Assay (Invitrogen, NY, USA).

S1P5 [1] = biological target: T2, S1P5 (Homo sapiens, UniProt Q9H228); assay: S1P5 agonist test, Tango S1P5-bla U-2 OS cells; format: cell-based; conditions: S1P5 TANGO U-2 OS cell line
T2 construct: Tango fusion partner (protease site + GAL4-VP16 transcription factor); expressed in transfected cells; host or cells: Tango S1P5-bla U-2 OS cells
T2 sequence (Q9H228 whole entry, the tested form may be a part): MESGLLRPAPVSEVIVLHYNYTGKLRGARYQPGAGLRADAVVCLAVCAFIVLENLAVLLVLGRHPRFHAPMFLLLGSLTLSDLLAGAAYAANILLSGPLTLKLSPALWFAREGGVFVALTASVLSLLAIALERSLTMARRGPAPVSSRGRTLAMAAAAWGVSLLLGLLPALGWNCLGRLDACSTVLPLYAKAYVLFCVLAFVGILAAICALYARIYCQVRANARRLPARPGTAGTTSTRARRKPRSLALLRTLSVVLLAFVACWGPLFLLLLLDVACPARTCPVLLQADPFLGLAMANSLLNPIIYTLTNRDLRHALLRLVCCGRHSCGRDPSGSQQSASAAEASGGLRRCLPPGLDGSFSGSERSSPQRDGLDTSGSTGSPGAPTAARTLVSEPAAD
Procedure: as §1, §2

S1P5 [2] = biological target: T2, S1P5; assay: S1P5 antagonist test, Tango S1P5-bla U-2 OS cells; format: cell-based; conditions: S1P5 TANGO U-2 OS cell line
Procedure: as §1, §2

Jurkat cell line = assay: XTT viability assay, Jurkat; format: cell-based, human; conditions: 1-day treatment
Procedure: (§3) Figure 1 AD2900 inhibits human lymphocyte proliferation in allogeneic activation (A, B) The levels of proliferative response of human peripheral blood lymphocytes (PBMCs) after 1-day pretreatment with different concentrations of AD2900, AD2750, YZ138, YZ158, and YZ297 (A) or AD2900, FTY720, and SEW2871 (B) were tested by human allogeneic mixed lymphocyte reaction (MLR) assay, followed by a [3H] thymidine incorporation analysis. (C) Apoptosis of AD2900-treated activated PBMCs was tested by AnnexinV-propidium iodide (PI) FACS analysis following 1-day AD2900 pretreatment and MLR. All the samples were compared to the untreated PBMC control. (D) IFN-γ secretion from activated PBMCs was tested by ELISA following a 1-day AD2900 pretreatment in MLR. On the 5th day of hMLR, supernatants were collected and assayed for the level of IFN-γ. (E) Jurkat cell viability after a 1-day treatment with different concentrations of AD2900, FTY720, and SEW2871 was tested by XTT viability assay. (F) H9, CEM/C1, and Molt4 cell viability after a 1-day treatment with different concentrations of AD2900 was tested by XTT viability assay. Graphs summarize the results of at least three independent experiments. Results of Student’s t-test: *(P < 0.05, two-tailed test), ** (P < 0.01, two-tailed test), *** (P < 0.001, two-tailed test), **** (P < 0.0001, two-tailed test). […]

CEM/C1 = assay: XTT viability assay, CEM/C1; format: cell-based, human; conditions: 1-day treatment, compared with Jurkat (>10 μM)
Procedure: as §3

Molt4 = assay: XTT viability assay, Molt4; format: cell-based, human; conditions: 1-day treatment, compared with Jurkat (>10 μM)
Procedure: as §3

H9 = assay: XTT viability assay, H9; format: cell-based, human; conditions: 1-day treatment, compared with Jurkat (>10 μM)
Procedure: as §3

CCR7-expressing PBMCs = assay: CCR7 surface expression on PBMCs, FACS; format: cell-based, human; conditions: 100 nM, 30-min treatment
Procedure: Figure 3 AD2900 downregulates the percentage of S1P1- and CCR7-expressing cells in PBMCs (A, B) The percentages of S1P1-positive PBMCs after the treatment with different concentrations of AD2900, FTY720, or SEW2871 and at different time points were examined by FACS analysis. S1P1 expression was tested in PBMCs after a 30-min treatment with AD2900 at different concentrations (A) or after a 30-min or 60-min treatment with 100 nM AD2900, FTY720, or SEW2871 (B). (C) The percentage of CCR7-positive PBMCs was tested by FACS analysis after a 30-min treatment with 100 nM AD2900, FTY720, or SEW2871. All the significances are compared to untreated PBMCs. Results summarize the results of at least four independent experiments. Results of Student’s t-test: *(P < 0.05, two-tailed test), ** (P < 0.01, two-tailed test), *** (P < 0.001, two-tailed test), **** (P < 0.0001, two-tailed test).
CCR7 is known as a lymph node homing receptor, and it is also involved in lymphocyte recirculation. Together with S1P1, CCR7 controls the circulation of lymphocytes between the SLOs and the blood or lymph. We therefore examined the effect of AD2900 on the level of CCR7-surface-expressing PBMCs.
Human PBMCs: For the apoptosis test, anti-AnnexinV-FITC (BD Biosciences, CA, USA) was used. […]

[3] = set-up: method as in unpublished data; conditions: previous studies; ref unpublished data; cited from earlier work

T1 sequence (Q99500 whole entry): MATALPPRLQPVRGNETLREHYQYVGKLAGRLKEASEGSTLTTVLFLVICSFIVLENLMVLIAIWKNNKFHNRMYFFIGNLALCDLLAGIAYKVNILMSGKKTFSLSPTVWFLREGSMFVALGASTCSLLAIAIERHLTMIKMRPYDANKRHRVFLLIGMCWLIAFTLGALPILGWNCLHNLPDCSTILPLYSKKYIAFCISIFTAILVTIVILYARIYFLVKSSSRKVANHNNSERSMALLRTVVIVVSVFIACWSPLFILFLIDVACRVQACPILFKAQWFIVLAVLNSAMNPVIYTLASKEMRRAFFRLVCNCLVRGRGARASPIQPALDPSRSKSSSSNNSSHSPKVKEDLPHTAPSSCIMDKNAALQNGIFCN

CCCCCCCCCCCCCCCCNC(CO)(CO)CO [AD2900]
EC50 (S1P3): > 50 µM
EC50 (S1P5 [1]): > 50 µM
IC50 (S1P5 [2]): 0.405 µM
concentrations leading to reduced viability of Jurkat cells (Jurkat cell line): higher than 10 μM
effect on Jurkat viability compared to FTY720 and SEW2817 (Jurkat cell line): lower than that with FTY720 treatment and higher than that with SEW2817
cell viability, CEM/C1 (CEM/C1): reduced cell viability could be detected even at lower concentrations
cell viability, Molt4 (Molt4): reduced cell viability could be detected even at lower concentrations
cell viability, H9 (H9): reduced cell viability could be detected even at lower concentrations
reduction of the normal percentage of CCR7-expressing cell population (CCR7-expressing PBMCs): 22% ± 5%
lethal dose 50% (LD50) [3]: above 100 mg/kg
